Data: ChEMBL document CHEMBL1141729, “Two new cytotoxic compounds from Tapirira guianensis” (J Nat Prod, 1998)
In brackets after ≈: the same amount, converted by molar mass.

Tests used:
Format in all cases: functional, cell-based
[1] = Cytotoxicity against vinblastine-resistant human KBV1 cells; settings: KB-V1
[2] = Cytotoxicity against vinblastine-resistant human KBV1 cells in presence of vinblastine; settings: KB-V1
[3] = tested on: LNCaP; assay: Cytotoxicity against human LNCAP cells
[4] = Cytotoxicity against human BC1 cells
[5] = tested on: Lu1; assay: Cytotoxicity against human Lu1 cells
[6] = tested on: Col2; assay: Cytotoxicity against human Col2 cells
[7] = tested on: KB; assay: Cytotoxicity against human KB cells

SMILES | IC50 [1] [µg/mL] | IC50 [2] [µg/mL] | IC50 [3] [µg/mL] | IC50 [4] [µg/mL] | IC50 [5] [µg/mL] | IC50 [6] [µg/mL] | IC50 [7] [µg/mL]
CCCCCC/C=C\CCCCCCCCCc1cc(O)ccc1O | 0.6 (≈ 1.73 µM) | 0.5 | 0.2 (≈ 0.577 µM) | 1.3 (≈ 3.75 µM) | 0.3 (≈ 0.866 µM) | 0.8 (≈ 2.31 µM) | 0.5 (≈ 1.44 µM)
CCCCCC/C=C\CCCCCCCCC[C@]1(O)C=CC(=O)[C@@H](O)C1 | 4.2 (≈ 11.5 µM) | 4.1 | 0.3 (≈ 0.823 µM) | 4.3 (≈ 11.8 µM) | 4.4 (≈ 12.1 µM) | 1.8 (≈ 4.94 µM) | 1.5 (≈ 4.11 µM)
